Literature values, collected in patent US9302977B2, “Method of making monomethyl fumarate” (XenoPort, Inc., priority 2013, dated 2016).
Counter-ions that a name gives are not always drawn.

How the values were obtained:
[1] = test system: TNF-induced NF-κB signaling
[2] = as an impurity

Row | TNF-induced DNA binding of NF-κB proteins [1] | aqueous solubility | Compound | TNF-induced nuclear entry of activated NF-κB proteins [1] | TNF-induced tissue factor mRNA and protein expression [1] | genotoxicity [2]
1 | inhibits | poor | COC(=O)/C=C/C(=O)OC [DMF, dimethyl fumarate] | inhibits | inhibits | –
2 | – | – | COS(=O)(=O)OC [Dimethyl sulfate] | – | – | genotoxic
